Reference: US4476299A, “Cyclic polyamino containing compounds having therapeutic effect and the preparation thereof” (priority 1981, dated 1984)
Where two headings read alike, the source gives them in different places.

Columns and labels:
P-388 cells = assay: Antineoplastic action against implanted P-388 tumor, CDF1 mice, i.p.-i.p. (T/C %); type: in vivo; conditions: Mus musculus, read-out: T/C %, (Treatment/Control %)
Protocol: (§1) In this animal test, the antineoplastic action against the implanted tumor was examined, in lower animals in vivo, in repsect to the compounds according to the present invention, by using CDF1 mice.
To the peritoneal cavity of each group of mice consisting of six CDF1 mice per group, 10^6 /0.1 ml of P-388 cells or 10^5 /0.1 ml of L-1210 cells were implanted. […] While to the control groups of CDF1 mice, P-388 and L-1210 cells were implanted in the same manner and they were bred without administration of the compounds. […]

B-16 melanoma = assay: Antineoplastic action against B-16 melanoma, i.p.-i.p. (T/C %); type: in vivo, mice; conditions: in words
Excerpt: as §1
(§2) As the screening test for confirming antineoplasticity of certain compound, it is known in the art that there are two kinds of tests, one being "in vitro" test wherein carcinoma cells in propagation in a test tube are used, the other being "in vivo" test wherein lower animals implanted with carcinoma cells are used. In Japan. the "in vivo" test is usually carried out by using Ehrlich tumor, L-1210 cells, sarcoma 180 cells, Yoshida sarcoma or ascites-liver tumor as ascitic tumor and immobilized carcinoma mentioned above as fixed carcinoma. Recently, a new method for confirming the antineoplasticity has been developed, in which lymphocytic leukemia cells P-388 are used. It is known that P-388 has more strong sensitivity than L-1210. As fixed carcinoma, there may be mentioned, for example Lewis lung cancer B-16 melanoma, MM2, MOPC 104E, Colon 26, MH 134, C-1498 and the like.
(§3) The new compounds of the present invention were confirmed to be effective to the P-388 cells in the light of the screening test's results hereinbefore described.

MM2 = assay: Antineoplastic action against MM2 tumor, i.p.-i.p. (T/C %); type: in vivo, mice; conditions: in words
Excerpt: as §1, §2, §3

[1] = ip, Table 6, P388, dose 0.05 mg/kg, i.p.
[2] = ip, Table 6, P388, dose 0.5 mg/kg, i.p.
[3] = ip, Table 6, P388, dose 2 mg/kg, i.p.

| SMILES | response vs control in vivo at 0.05 mg/kg (P-388 cells; P388, ip) | response vs control in vivo at 0.5 mg/kg (P-388 cells; P388, ip) | response vs control in vivo at 2 mg/kg (P-388 cells; P388, ip) | response vs control in vivo at 10 mg/kg (P-388 cells; P388, ip) | also measured |
| --- | --- | --- | --- | --- | --- |
| COc1ccc(CC2C(=O)NC(C)C(=O)N(C)C3Cc4ccc(cc4)Oc4cc(ccc4OC4CCCCO4)CC(C(=O)NC(C)C(=O)NC(C)C(=O)N2C)N(C)C3=O)cc1 (centres unmarked) [Ex. 20, tetrahydropyranylether of TPC-A] | 138% | 164% | 121% | – | – |
| CCCCCCCCOc1ccc2cc1Oc1ccc(cc1)CC1C(=O)N(C)C(C2)C(=O)NC(C)C(=O)NC(C)C(=O)N(C)C(Cc2ccc(OC)cc2)C(=O)NC(C)C(=O)N1C (centres unmarked) [Ex. 9] | 136% | 147% | 163% | – | response vs control in vivo at 4 mg/kg (P-388 cells; P388, ip): 152% |
| CCCCCCCOc1ccc2cc1Oc1ccc(cc1)CC1C(=O)N(C)C(C2)C(=O)NC(C)C(=O)NC(C)C(=O)N(C)C(Cc2ccc(OC)cc2)C(=O)NC(C)C(=O)N1C (centres unmarked) [Ex. 8] | 116% | 145% | 150% | – | response vs control in vivo at 4 mg/kg (P-388 cells; P388, ip): 164% |
| CCCC(=O)Oc1ccc2cc1Oc1ccc(cc1)CC1C(=O)N(C)C(C2)C(=O)NC(C)C(=O)NC(C)C(=O)N(C)C(Cc2ccc(OC)cc2)C(=O)NC(C)C(=O)N1C (centres unmarked) [Ex. 24] | 125% | 144% | 156% | 170% | – |
| CCOc1ccc2cc1Oc1ccc(cc1)CC1C(=O)N(C)C(C2)C(=O)NC(C)C(=O)NC(C)C(=O)N(C)C(Cc2ccc(OC)cc2)C(=O)NC(C)C(=O)N1C (centres unmarked) [Ex. 3] | 137% | 165% | 162% | – | – |
| CCCC(C)C(=O)Oc1ccc2cc1Oc1ccc(cc1)CC1C(=O)N(C)C(C2)C(=O)NC(C)C(=O)NC(C)C(=O)N(C)C(Cc2ccc(OC)cc2)C(=O)NC(C)C(=O)N1C (centres unmarked) [Ex. 43] | 117% | 142% | 154% | – | – |
| CCCCCCCCCC(=O)Oc1ccc2cc1Oc1ccc(cc1)CC1C(=O)N(C)C(C2)C(=O)NC(C)C(=O)NC(C)C(=O)N(C)C(Cc2ccc(OC)cc2)C(=O)NC(C)C(=O)N1C (centres unmarked) [Ex. 30] | 122% | 146% | 152% | 151% | effective against B-16 melanoma (B-16 melanoma): effective against B-16 melanoma; effective against MM2 (MM2): effective |
| CCC(C)CC(=O)Oc1ccc2cc1Oc1ccc(cc1)CC1C(=O)N(C)C(C2)C(=O)NC(C)C(=O)NC(C)C(=O)N(C)C(Cc2ccc(OC)cc2)C(=O)NC(C)C(=O)N1C (centres unmarked) [Ex. 42] | 115% | 140% | 159% | – | – |
| COc1ccc(CC2C(=O)NC(C)C(=O)N(C)C3Cc4ccc(cc4)Oc4cc(ccc4OC(=O)Cc4ccccc4)CC(C(=O)NC(C)C(=O)NC(C)C(=O)N2C)N(C)C3=O)cc1 (centres unmarked) [Ex. 41] | – | – | – | – | response vs control in vivo at 0.05 mg/kg (P-388 cells; [1]): 118%; response vs control in vivo at 0.5 mg/kg (P-388 cells; [2]): 147%; response vs control in vivo at 2 mg/kg (P-388 cells; [3]): 159% |
| CCCCCOc1ccc2cc1Oc1ccc(cc1)CC1C(=O)N(C)C(C2)C(=O)NC(C)C(=O)NC(C)C(=O)N(C)C(Cc2ccc(OC)cc2)C(=O)NC(C)C(=O)N1C (centres unmarked) [Ex. 7] | 122% | 143% | 165% | – | – |
| CCCCC(=O)Oc1ccc2cc1Oc1ccc(cc1)CC1C(=O)N(C)C(C2)C(=O)NC(C)C(=O)NC(C)C(=O)N(C)C(Cc2ccc(OC)cc2)C(=O)NC(C)C(=O)N1C (centres unmarked) [Ex. 27] | 118% | 150% | 158% | 172% | – |
| COc1ccc(CC2C(=O)NC(C)C(=O)N(C)C3Cc4ccc(cc4)Oc4cc(ccc4OC(=O)c4ccccc4)CC(C(=O)NC(C)C(=O)NC(C)C(=O)N2C)N(C)C3=O)cc1 (centres unmarked) [Ex. 32] | 128% | 186% | 176% | 183% | – |
| CCCCCCC(=O)Oc1ccc2cc1Oc1ccc(cc1)CC1C(=O)N(C)C(C2)C(=O)NC(C)C(=O)NC(C)C(=O)N(C)C(Cc2ccc(OC)cc2)C(=O)NC(C)C(=O)N1C (centres unmarked) [Ex. 28] | 114% | 144% | 150% | – | – |
| COc1ccc(CC2C(=O)NC(C)C(=O)N(C)C3Cc4ccc(cc4)Oc4cc(ccc4OC(=O)CCC(C)C)CC(C(=O)NC(C)C(=O)NC(C)C(=O)N2C)N(C)C3=O)cc1 (centres unmarked) [Ex. 40, 4-methyl valerate] | 112% | 134% | 152% | – | – |
| CCC(=O)Oc1ccc2cc1Oc1ccc(cc1)CC1C(=O)N(C)C(C2)C(=O)NC(C)C(=O)NC(C)C(=O)N(C)C(Cc2ccc(OC)cc2)C(=O)NC(C)C(=O)N1C (centres unmarked) [Ex. 23] | 129% | 145% | 164% | 175% | – |
| CCC=CCC(=O)Oc1ccc2cc1Oc1ccc(cc1)CC1C(=O)N(C)C(C2)C(=O)NC(C)C(=O)NC(C)C(=O)N(C)C(Cc2ccc(OC)cc2)C(=O)NC(C)C(=O)N1C (centres unmarked) [Ex. 45] | – | – | – | – | response vs control in vivo at 0.05 mg/kg (P-388 cells; [1]): 122%; response vs control in vivo at 0.5 mg/kg (P-388 cells; [2]): 145%; response vs control in vivo at 2 mg/kg (P-388 cells; [3]): 162% |
| CCCCCCCCCOc1ccc2cc1Oc1ccc(cc1)CC1C(=O)N(C)C(C2)C(=O)NC(C)C(=O)NC(C)C(=O)N(C)C(Cc2ccc(OC)cc2)C(=O)NC(C)C(=O)N1C (centres unmarked) [Ex. 10] | – | – | – | – | response vs control in vivo at 0.05 mg/kg (P-388 cells; [1]): 112%; response vs control in vivo at 0.5 mg/kg (P-388 cells; [2]): 142%; response vs control in vivo at 2 mg/kg (P-388 cells; [3]): 150%; response vs control in vivo at 4 mg/kg (P-388 cells; ip, Table 6, P388, dose 4 mg/kg, i.p.): 155% |
| COc1ccc(CC2C(=O)NC(C)C(=O)N(C)C3Cc4ccc(cc4)Oc4cc(ccc4OC(=O)C(C)C)CC(C(=O)NC(C)C(=O)NC(C)C(=O)N2C)N(C)C3=O)cc1 (centres unmarked) [Ex. 25] | 124% | 151% | 156% | 184% | – |
| CC=CC(=O)Oc1ccc2cc1Oc1ccc(cc1)CC1C(=O)N(C)C(C2)C(=O)NC(C)C(=O)NC(C)C(=O)N(C)C(Cc2ccc(OC)cc2)C(=O)NC(C)C(=O)N1C (centres unmarked) [Ex. 26] | 124% | 148% | 162% | 187% | – |
| CCOC(=O)CCCOc1ccc2cc1Oc1ccc(cc1)CC1C(=O)N(C)C(C2)C(=O)NC(C)C(=O)NC(C)C(=O)N(C)C(Cc2ccc(OC)cc2)C(=O)NC(C)C(=O)N1C (centres unmarked) [Ex. 19(2), ethoxycarbonylpropylether (2) of TPC-A] | 114% | 140% | 142% | – | response vs control in vivo at 4 mg/kg (P-388 cells; P388, ip): 153% |
| COc1ccc(CC2C(=O)NC(C)C(=O)N(C)C3Cc4ccc(cc4)Oc4cc(ccc4OC(C)C)CC(C(=O)NC(C)C(=O)NC(C)C(=O)N2C)N(C)C3=O)cc1 (centres unmarked) [Ex. 5] | 142% | 175% | 105% | – | – |
| CCCCCCCC(=O)Oc1ccc2cc1Oc1ccc(cc1)CC1C(=O)N(C)C(C2)C(=O)NC(C)C(=O)NC(C)C(=O)N(C)C(Cc2ccc(OC)cc2)C(=O)NC(C)C(=O)N1C (centres unmarked) [Ex. 29] | 127% | 147% | 167% | 169% | – |
| COc1ccc(CC2C(=O)NC(C)C(=O)N(C)C3Cc4ccc(cc4)Oc4cc(ccc4OC4CCCCC4)CC(C(=O)NC(C)C(=O)NC(C)C(=O)N2C)N(C)C3=O)cc1 (centres unmarked) [Ex. 16] | 126% | 162% | 164% | – | – |
| CCCC=CC(=O)Oc1ccc2cc1Oc1ccc(cc1)CC1C(=O)N(C)C(C2)C(=O)NC(C)C(=O)NC(C)C(=O)N(C)C(Cc2ccc(OC)cc2)C(=O)NC(C)C(=O)N1C (centres unmarked) [Ex. 44] | 117% | 150% | 165% | – | – |
